In patent US6783947B1, “Protecting groups for biological labeling” (Dade Behring Marburg GmbH, priority 1999, dated 2004):
Where a name gives a salt, the structure may show the parent alone.

Legend:
[1] = Storage stability of derivatizing agent, monitored by total LOCI assay signal modulation (three-reagent protocol); type: physicochemical
Protocol: A 50 μL mixture of hcy-ABA-sensitizer beads (0.1 mg/ml) and 2 mM TCEP is added to 5 μL hcy serum calibrator in a reaction cuvette, followed by the addition of 50 μL assay buffer. The mixture is incubated for 417 sec. Then, 50 μL of 5 mM BABA is added and followed by 45 μL assay buffer. Following incubation for 157 sec., 50 μL of Ab-coated acceptor beads (at 0.25-0.5 mg/ml) is added. After incubation for 154 sec., the sample is read.
In Table 2, the three-reagent protocol is used as described previously, with 5 mM BABA stored in a different pH buffer as R-2 (reagent 2).
The activity of BABA is monitored by the amount of total assay signal modulation obtained by LOCI using the three-reagent protocol.
The three-reagent assay protocol using CABA-phosphate as derivatizing agent is also assessed. Similar results are obtained with hcy serum calibrators as in the three-reagent protocol using BABA (not shown). The stability of CABA is also studied. The activity of CABA-phosphate as derivatizing agent is monitored by the amount of total assay signal modulation obtained by LOCI using the three-reagent protocol. In Table 3, the three-reagent assay protocol is used with CABA-phosphate stored at two temperatures in pH 9.0 as R-2; mixed hcy-sensitizer beads and TCEP as R-1; mixed Ab-acceptor beads and alkaline phosphatase as R-3.

[2] = Stability of alkylating reagent in the presence of reducing agent TCEP (TLC); type: physicochemical; conditions: 5 mM each in phosphate buffer pH 7, sixteen (16) hours, room temperature
Solubility = type: physicochemical; conditions: over a wide pH range
[3] = target: T1, alkaline phosphatase (Sigma, human placenta) (Homo sapiens, UniProt P05187); test: Deprotection of phosphate protecting group by alkaline phosphatase (TLC, NMR); type: biochemical; conditions: mixture of BABA-phosphate and CABA-phosphate, 5 mg in 1 mL pH 8-9 NaOD/D2O, 1 mg (15 units) enzyme, 15 minutes, room temperature
T1 construct: alkaline phosphatase (Sigma, human placenta); purchased Sigma; host or cells: human placenta (tissue-derived)
Protocol: A mixture of BABA-phosphate and CABA-phosphate (resulting from preparation of BABA-phosphate), 5 mg in 1 mL pH 8-9 NaOD/D2O is treated with 1 mg (15 units) of alkaline phosphatase (Sigma, human placenta) for 15 minutes at room temperature.
Reaction of the crude product of the reaction with alkaline phosphatase, for about ten (10) minutes, with cysteine, results in the disappearance of the first product, deprotected alkylating reagent, and appearance of a more polar product. The latter is assumed to be an adduct of the alkylating reagent and cysteine.

T1 sequence (P05187 23-506): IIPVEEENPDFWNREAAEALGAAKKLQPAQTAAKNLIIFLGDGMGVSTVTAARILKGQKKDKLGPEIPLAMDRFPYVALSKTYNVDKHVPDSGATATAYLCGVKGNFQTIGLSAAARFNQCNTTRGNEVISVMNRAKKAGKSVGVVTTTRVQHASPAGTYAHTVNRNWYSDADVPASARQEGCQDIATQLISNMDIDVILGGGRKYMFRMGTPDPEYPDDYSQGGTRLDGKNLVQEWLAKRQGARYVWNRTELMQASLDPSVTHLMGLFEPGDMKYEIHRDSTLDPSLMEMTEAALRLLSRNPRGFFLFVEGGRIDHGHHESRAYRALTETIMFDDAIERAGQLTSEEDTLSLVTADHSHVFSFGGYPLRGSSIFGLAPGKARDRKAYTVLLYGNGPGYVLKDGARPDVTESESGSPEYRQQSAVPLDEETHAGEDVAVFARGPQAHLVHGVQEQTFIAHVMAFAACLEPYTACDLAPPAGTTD

Compound	stability of BABA in solution ([1]; even at the optimum condition, pH 6.0)	reaction of the protected alkylating reagent with TCEP (TLC) [2]	solubility (Solubility)	removal of the phosphate group by alkaline phosphatase (TLC, NMR) [3]	% Modulation (0 to 60 μM) ([1]; 5 mM in 50 mM borate buffer pH 9.0, stored @4° C., 1 wk) [%]	% Modulation (0 to 60 μM) ([1]; 5 mM in 50 mM borate buffer pH 9.0, stored @4° C., 2 wks) [%]	% Modulation (0 to 60 μM) ([1]; 5 mM in 50 mM borate buffer pH 9.0, stored @4° C., 5 wks) [%]	% Modulation (0 to 60 μM) ([1]; 5 mM in 50 mM borate buffer pH 9.0, stored @4° C., 7 wks) [%]	% Modulation (0 to 60 μM) ([1]; 5 mM in 50 mM borate buffer pH 9.0, stored @4° C., 10 wks) [%]	% Modulation (0 to 60 μM) ([1]; 5 mM in 50 mM borate buffer pH 9.0, stored @4° C., 13 wks) [%]	% Modulation (0 to 60 μM) ([1]; 5 mM in 50 mM borate buffer pH 9.0, stored @4° C., o/n) [%]	% Modulation (0 to 60 μM) ([1]; 5 mM in 50 mM borate buffer pH 9.0, stored @37° C., 1 wk) [%]	% Modulation (0 to 60 μM) ([1]; 5 mM in 50 mM borate buffer pH 9.0, stored @37° C., 2 wks) [%]	% Modulation (0 to 60 μM) ([1]; 5 mM in 50 mM borate buffer pH 9.0, stored @37° C., 5 wks) [%]	% Modulation (0 to 60 μM) ([1]; 5 mM in 50 mM borate buffer pH 9.0, stored @37° C., 7 wks) [%]	% Modulation (0 to 60 μM) ([1]; 5 mM in 50 mM borate buffer pH 9.0, stored @37° C., 10 wks) [%]	% Modulation (0 to 60 μM) ([1]; 5 mM in 50 mM borate buffer pH 9.0, stored @37° C., 13 wks) [%]	% Modulation (0 to 60 μM) ([1]; 5 mM in 50 mM borate buffer pH 9.0, stored @37° C., o/n) [%]	shelf life compared with BABA ([1]; three-reagent protocol, Table 3)
O=C(O)c1ccc(C(=O)CBr)cc1 [BABA, bromoacetylbenzoic acid, reference compound]	limited stability																		
O=C(O)c1ccc(/C(=C/Cl)OP(=O)(O)O)cc1 [CABA-phosphate, 4-(chloroacetyl)benzoate enol-phosphate sodium salt]		resistant to reaction with TCEP	readily soluble	removed	54	56	55	54	51	45	57	45	51	50	51	44	35	55	much longer shelf life than BABA
